Here are results for seven molecules from patent US20060167229A1, “Biologically active peptide conjugates” (priority 2002, published 2006).

Marks after values point to notes of the source that are not given here. Ends that are not written are not given here.

What all share (format): in vivo, BALB/c mice
One test deals with mononuclear phagocyte. Kind of test: Carbon particle clearance test, phagocytosis function. Further details: key to X ± SD (phagocytotic index): α = cube root of K × (body weight ÷ liver+spleen weight). The note with it: for X ± SD (phagocytotic index): healthy mice, saline 5.1 ± 0.6; for effect on the phagocytotic activity of mononuclear phagocyte (summary): statistically significant difference from saline in any of the dosage groups 0.5-500 μg/kg/day. Summed up:
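Clearance index K came from OD680 of blood sampled 1 and 5 min after tail-vein India ink ([…], diluted 5×), given on day 16. Phagocytic index α combined K with liver, spleen […] weights taken the same day.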

The next test has as its system NK cell. Kind of test: NK cell cytotoxicity activity test (spleen cells of treated mice against YAC-1 target cells, MTT). The settings on record: for NK cell cytotoxic activity, X ± SD (%): healthy mice; for effect on the cytotoxic activity of NK cells (summary): statistically significant difference from saline in any of the dosage groups 0.5-500 μg/kg/day. The method in brief:
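YAC-1 target cells (1×10^5/ml) mixed with splenocytes (4×10^6/ml) from mice given test substances i.p. daily for 15 days (10 mice/group). Effector-only and target-only wells served as controls. MTT added at 1 mg/ml for 4 h at 37 °C; absorbance read at 570/630 nm.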

The subject of another test is anti-SRBC antibody. Kind of test: Sheep Red Blood Cell (SRBC) hemolysis test, antibody formation. The note with it: for anti-SRBC antibody formation, X ± SD (Unit): healthy mice, SRBC day 12 (IFN-γ, IL-2 3×10^5 IU/kg/day), saline 32 ± 7; for effect on the synthesis of anti-SRBC antibody upon the antigenic challenge (summary): statistically significant difference from saline in any of the dosage groups 0.5-500 μg/kg/day. The method in brief:
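Antibody formation was read as haemolysis: 500-fold diluted serum, collected on day 16 after intraperitoneal SRBC (0.2 ml, day 12), was mixed with 2% SRBC plus complement for 10 min at 37° C. Supernatant haemoglobin measured with Drabkin reagent at OD540, indexed against a reference SRBC lysate ×500.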

In another test the test system is thymus gland. Put plainly: Immunity organ weight test, thymus gland index. The settings on record: for weight of thymus gland (thymus gland index), X ± SD (%): healthy mice, saline 0.12 ± 0.02; for effect on the weight of the thymus gland (summary): statistically significant difference from saline in any of the dosage groups 0.5-500 μg/kg/day. The method, then: One day after the last test substance administration (day 16), the liver, spleen, and thymus gland were separated and blotted dry with filter paper and weighed. The phagocytosis index α was calculated as below: α=(^3√{square root over ( )}K)(W÷WLS)
Thymus gland index (%)=(thymus weight/body weight)×100%

Setting [1] is: peptide 5 μg/kg/day i.p. 15 days (IFN-γ, IL-2 3×10^5 IU/kg/day).
The mark [2] stands for this setting: peptide 0.5 μg/kg/day i.p. 15 days (IFN-γ, IL-2 3×10^5 IU/kg/day), saline 58 ± 7.
The mark [3] stands for this setting: peptide 50 μg/kg/day i.p. 15 days (IFN-γ, IL-2 3×10^5 IU/kg/day), saline 56 ± 8.
[4] abbreviates: peptide 500 μg/kg/day i.p. 15 days (IFN-γ, IL-2 3×10^5 IU/kg/day), saline 63 ± 9.
[5] abbreviates: peptide 5 μg/kg/day i.p. 15 days.
The mark [6] stands for this setting: peptide 50 μg/kg/day i.p. 15 days.
Setting [7] is: peptide 500 μg/kg/day i.p. 15 days.
The mark [8] stands for this setting: peptide 500 μg/kg/day i.p. 15 days (IFN-γ, IL-2 3×10^5 IU/kg/day).
[9] abbreviates: peptide 5 μg/kg/day i.p. 15 days (IFN-γ, IL-2 3×10^5 IU/kg/day), saline 60 ± 9.
The mark [10] stands for this setting: peptide 0.5 μg/kg/day i.p. 15 days.
Where [11] appears, read: peptide 0.5 μg/kg/day i.p. 15 days (IFN-γ, IL-2 3×10^5 IU/kg/day).
Setting [12] is: peptide 50 μg/kg/day i.p. 15 days (IFN-γ, IL-2 3×10^5 IU/kg/day).

Consider “Phe Val Asn Asp (FVND; listed as Sus scrofa) [CMS035]”, for which, in the test on mononuclear phagocyte (setting [1]), the “X ± SD (phagocytotic index)” value was 6.9 ± 0.9*^. In addition, the “effect on the phagocytotic activity of mononuclear phagocyte (summary)” value (“effect on the phagocytotic activity” below) in the test with mononuclear phagocyte was “enhance”. Besides, the “NK cell cytotoxic activity, X ± SD (%)” value in the test on NK cell (setting [2]) stood at 76 ± 10 %; with NK cell (setting [3]), 72 ± 9 %; in the test with NK cell (setting [4]), 90 ± 10 %. In addition, the “effect on the cytotoxic activity of NK cells (summary)” value (“effect on the cytotoxic activity” for short) with NK cell is on record as “increase”. For the same molecule, the “anti-SRBC antibody formation, X ± SD (Unit)” value in the test with anti-SRBC antibody (setting [5]) is given as 176 ± 39*^@^ Unit; in the test on anti-SRBC antibody (setting [6]), 97 ± 10*^@^ Unit; in the test with anti-SRBC antibody (setting [7]), 88 ± 16*^@ Unit. In addition, the “effect on the synthesis of anti-SRBC antibody upon the antigenic challenge (summary)” value (“effect on the synthesis” below) with anti-SRBC antibody is “enhance”. Moreover, the “weight of thymus gland (thymus gland index), X ± SD (%)” value in the test with thymus gland (setting [1]) is 0.21 ± 0.04 %; in the test with thymus gland (setting [8]), 0.21 ± 0.03*^@^ %. For the same molecule, in the test on thymus gland, the “effect on the weight of the thymus gland (summary)” value (“effect on the weight” for short) is “increase”.
Turning to RVAPQQHPTL [CMS011], the “X ± SD (phagocytotic index)” value in the test on mononuclear phagocyte (setting [1]) was 6.4 ± 1.1. Moreover, in the test with mononuclear phagocyte, the “effect on the phagocytotic activity” value was “enhance”. The “NK cell cytotoxic activity, X ± SD (%)” value in the test with NK cell (setting [2]) stood at 79 ± 3 %; in the test with NK cell (setting [9]) it was 76 ± 10 %. In addition, in the test on NK cell, the “effect on the cytotoxic activity” value is “increase”. In addition, the “anti-SRBC antibody formation, X ± SD (Unit)” value in the test with anti-SRBC antibody (setting [10]) is listed as 5 ± 3 Unit; in the test with anti-SRBC antibody (setting [5]), 115 ± 27*^@^ Unit; in the test on anti-SRBC antibody (setting [6]), 67 ± 9*^@ Unit; in the test on anti-SRBC antibody (setting [7]) it was 188 ± 16*^@^ Unit. Also, in the test on thymus gland (setting [1]), the “weight of thymus gland (thymus gland index), X ± SD (%)” value came out at 0.22 ± 0.04 %.
With “Tyr Ser Leu (YSL; listed as Sus scrofa) [CMS024]”, the “X ± SD (phagocytotic index)” value in the test with mononuclear phagocyte (setting [11]) is given as 6.7 ± 0.5*^; in the test with mononuclear phagocyte (setting [12]) it was 6.6 ± 0.7; with mononuclear phagocyte (setting [8]), 6.4 ± 1.0. Further, in the test on mononuclear phagocyte, the “effect on the phagocytotic activity” value is “enhance”. The “NK cell cytotoxic activity, X ± SD (%)” value in the test with NK cell (setting [9]) was 78 ± 3 %; with NK cell (setting [4]), 89 ± 8 %. Moreover, in the test on NK cell, the “effect on the cytotoxic activity” value was “increase”. Further, the “anti-SRBC antibody formation, X ± SD (Unit)” value is reported as 98 ± 6*^@^ Unit with anti-SRBC antibody (setting [10]), 171 ± 39*^@^ Unit with anti-SRBC antibody (setting [5]) and 75 ± 29*^@ Unit in the test on anti-SRBC antibody (setting [7]). Besides, in the test with anti-SRBC antibody, the “effect on the synthesis” value is “enhance”. The “weight of thymus gland (thymus gland index), X ± SD (%)” value in the test with thymus gland (setting [1]) is 0.23 ± 0.06*^ %; in the test on thymus gland (setting [12]), 0.27 ± 0.02*^@^ %. Further, in the test with thymus gland, the “effect on the weight” value is on record as “increase”.
Take “Tyr Ser Phe (YSF; listed as Sus scrofa) [CMS022]”: the “X ± SD (phagocytotic index)” value in the test on mononuclear phagocyte (setting [8]) is 7.4 ± 0.6*^@^. The “effect on the phagocytotic activity” value in the test on mononuclear phagocyte is given as “enhance”. The “NK cell cytotoxic activity, X ± SD (%)” value in the test on NK cell (setting [2]) is 73 ± 11 %. The “effect on the cytotoxic activity” value in the test on NK cell is on record as “increase”. Moreover, the “anti-SRBC antibody formation, X ± SD (Unit)” value with anti-SRBC antibody (setting [6]) is 110 ± 16*^@^ Unit; with anti-SRBC antibody (setting [7]), 68 ± 31*^@ Unit. In addition, in the test on anti-SRBC antibody, the “effect on the synthesis” value is reported as “enhance”. The “weight of thymus gland (thymus gland index), X ± SD (%)” value in the test on thymus gland (setting [11]) is recorded as 0.21 ± 0.06 %; with thymus gland (setting [1]), 0.25 ± 0.04*^@^ %; in the test with thymus gland (setting [12]) it was 0.30 ± 0.03*^@^ %; in the test on thymus gland (setting [8]), 0.26 ± 0.05*^@^ %. Besides, in the test with thymus gland, the “effect on the weight” value is “increase”.
In the case of VAPEEHPTLLTEAPLNPK [CMS010], the “X ± SD (phagocytotic index)” value in the test with mononuclear phagocyte (setting [1]) is listed as 7.1 ± 0.7*^. For the same molecule, in the test with mononuclear phagocyte, the “effect on the phagocytotic activity” value is recorded as “enhance”. Further, the “NK cell cytotoxic activity, X ± SD (%)” value is 82 ± 9 % with NK cell (setting [9]) and 91 ± 4*^@^ % in the test on NK cell (setting [4]). Further, in the test on NK cell, the “effect on the cytotoxic activity” value is reported as “increase”. Besides, the “anti-SRBC antibody formation, X ± SD (Unit)” value with anti-SRBC antibody (setting [10]) is listed as 10 ± 3 Unit; in the test on anti-SRBC antibody (setting [7]), 112 ± 30*^@^ Unit. Further, the “weight of thymus gland (thymus gland index), X ± SD (%)” value is on record as 0.21 ± 0.03 % in the test with thymus gland (setting [11]), 0.27 ± 0.05*^@^ % with thymus gland (setting [1]) and 0.19 ± 0.04 % with thymus gland (setting [8]). Besides, in the test with thymus gland, the “effect on the weight” value is “increase”.
For VGMGQKDSYV [CMS020], in the test on mononuclear phagocyte (setting [8]), the “X ± SD (phagocytotic index)” value was 6.4 ± 0.6. Further, in the test with mononuclear phagocyte, the “effect on the phagocytotic activity” value is recorded as “enhance”. Besides, the “NK cell cytotoxic activity, X ± SD (%)” value in the test with NK cell (setting [9]) is reported as 91 ± 6 %. Moreover, in the test on NK cell, the “effect on the cytotoxic activity” value is on record as “increase”. Also, the “anti-SRBC antibody formation, X ± SD (Unit)” value was 10 ± 3 Unit in the test on anti-SRBC antibody (setting [10]), 89 ± 24*^@ Unit with anti-SRBC antibody (setting [5]) and 155 ± 35*^@^ Unit in the test with anti-SRBC antibody (setting [7]). Further, the “weight of thymus gland (thymus gland index), X ± SD (%)” value was 0.23 ± 0.05*^@^ % in the test with thymus gland (setting [11]), 0.24 ± 0.07*^@^ % in the test with thymus gland (setting [1]), 0.27 ± 0.03*^@^ % with thymus gland (setting [12]) and 0.19 ± 0.04 % in the test on thymus gland (setting [8]). Also, the “effect on the weight” value with thymus gland is “increase”.

B1: IFN-γ: recombinant mouse IFN-γ (rmIFN-γ), Beijing Biotech Inc.; positive control (protein, UniProt P01580 23-155, looked up)
Interferon gamma: HGTVIESLESLNNYFNSSGIDVEEKSLFLDIWRNWQKDGDMKILQSQIISFYLRLFEVLKDNQAISNNISVIESHLITTFFSNSKAKKDAFMSIAKFEVNNPQVQRQAFNELIRVVHQLLPESSLRKRKRSRC
B1: the “X ± SD (phagocytotic index)” value in the test on mononuclear phagocyte (setting [11]), in the test on mononuclear phagocyte (setting [1]), in the test with mononuclear phagocyte (setting [12]) and in the test with mononuclear phagocyte (setting [8]) was 6.4 ± 0.9 each time. The “NK cell cytotoxic activity, X ± SD (%)” value in the test with NK cell (setting [2]) is recorded as 72 ± 9 %; in the test on NK cell (setting [9]) it was 80 ± 8 %; in the test with NK cell (setting [3]) it was 73 ± 10 %; in the test on NK cell (setting [4]), 77 ± 8 %. The “anti-SRBC antibody formation, X ± SD (Unit)” value in the test with anti-SRBC antibody (setting [10]), in the test on anti-SRBC antibody (setting [5]), in the test on anti-SRBC antibody (setting [6]) and in the test on anti-SRBC antibody (setting [7]) was 37 ± 10 Unit throughout. Also, the “weight of thymus gland (thymus gland index), X ± SD (%)” value with thymus gland (setting [11]), with thymus gland (setting [1]), with thymus gland (setting [12]) and in the test on thymus gland (setting [8]) was 0.15 ± 0.04% each time.
